Where a name gives a salt, the structure may show the parent alone.
Test system: mice
Assay: Irwin test in mice, oral administration
Format: in vivo
Description: These findings are most important, since the safety range of the compounds of this invention makes them be highly useful for their clinical application.

O=C(CN1CC[C@@H](c2ccc(F)cc2)[C@H](COc2ccc3c(c2)OCO3)C1)c1ccc(Cl)cc1 [Example 2, (-)-Trans-N-p-chlorobenzoylmethyl-4-(p-fluorophenyl)-3-[[3,4-(methylenedioxy)phenoxy]methyl]-piperidine hydrochloride]
signs of toxicity, Irwin test (800 mg/kg): merely the onset of manifestations of hyperactivity was observed

Fc1ccc([C@@H]2CCNC[C@H]2COc2ccc3c(c2)OCO3)cc1 [Paroxetine, (-)-trans-4-(p-fluorophenyl)-3-[[3,4-(methylenedioxy)phenoxy]methyl]-piperidine, reference compound]
signs of toxicity, Irwin test (400 mg/kg): convulsions, mydriasis and Straub tail

O=C(CN1CC[C@@H](c2ccc(F)cc2)[C@H](COc2ccc3c(c2)OCO3)C1)c1ccc(F)cc1 [Example 1, (-)-Trans-N-p-fluorobenzoylmethyl-4-(p-fluorophenyl)-3-[[3,4-(methylenedioxy)phenoxy]methyl]-piperidine hydrochloride]
signs of toxicity, Irwin test (600 mg/kg): did not show any sign of toxicity
